Patent publication US20220160712A1, “METHODS OF TREATING RHEUMATOID ARTHRITIS AND FOR PREDICTING THE RESPONSE TO METHOTREXATE” (CHAN ZUCKERBERG BIOHUB, INC., priority 2020, published 2022)

Legend:
[1] = test system: human gut bacterial isolates; test: In vitro bacterial growth studies (MIC, growth curves) on a panel of 45 isolates; format: cell-based
From the text: 42/45 of the tested isolates are commonly found in the human gut microbiota, with the exceptions of Bacteroides acidifaciens (found in mice), Delftia acidovorans (found in soil), and Bacillus subtilis 168 (found in soil). Each of these strains was obtained from the Deutsche Sammlung von Mikroorganismen and Zellkulturen (DSMZ) culture collection. A single colony of each isolate was subcultured in Bacto Brain Heart Infusion (BD Biosciences, 37 g/L) supplemented with L-cysteine-HCl (0.05%, w/v), menadione (1 μg/mL), and hemin (5 μg/mL) (referred to hereafter as BHI+) for 48 hours in an anaerobic chamber (Coy Laboratory Products) at 37° C. with an atmosphere composed of 2-3% H2, 20% CO2, and the balance N2. This subculture was diluted down to an OD600 of 0.08-0.1, which was then further diluted 100-fold, and then used to inoculate a microtiter plate with 2-fold serial dilutions of MTX concentrations ranging from 0-900 μg/ml. Plates were incubated at 37° C. with shaking in an Eon Microplate Spectrophotometer (BioTek Instruments, Inc) over a 48 to 72-hour period in the anaerobic chamber. Growth was monitored every 15 minutes at OD600 and corrected for background (no growth control). Data were exported using the Gen5 (v 2.0) software. […] As with any in vitro system, the growth of cells may be dependent on the growth medium used, and for these studies, a rich medium (BHI+) was used.
Growth parameters (carrying capacity, time to mid-exponential and growth rate) were calculated in R using GrowthCurveR (Sprouffske, K., and Wagner, A. (2016), BMC Bioinformatics 17, 1726) (v0.2.1). Curves that could not be fit by the software (i.e., generated a warning/error message) were excluded from further analysis. […] Determination of dose-dependency was done by fitting a linear regression with methotrexate concentration as the independent variable and the estimated growth parameter as the dependent variable using lm from the stats package (v3.5.1). For rescue studies, as above, growth parameters (carrying capacity, time to mid-exponential, growth rate, and area under the curve) were calculated in R using GrowthCurveR (Sprouffske and Wagner, 2016) (v0.2.1). Four isolates were evaluated with varying sensitivity to MTX (B. thetaiotaomicron, B. vulgatus, C. innocuum and C. symbiosum). C. asparagiforme was excluded because rescue of growth would be difficult to identify in this MTX resistant strain (FIG. 2D). Growth curves at 9 concentrations of MTX tested against 7 concentrations of folic acid were measured. Determination of dose-dependency at each tested concentration of MTX was done by fitting a linear regression with folic acid or leucovorin concentration as the independent variable and the estimated growth parameter as the dependent variable using lm from the stats package (v3.5.1). […] A p-value cutoff of p<0.05 was used to identify effects that were dose-dependent based on the linear regression.

gut microbiome = test: RA patients on oral MTX: 16S-seq and metagenomic sequencing of stool at baseline and 1 month; clinical response; format: in vivo, human; details: for number of gene families differentially abundant over time: metagenomic sequencing n=17
Protocol: Consecutive patients from the New York University Langone Medical Center's rheumatology clinics and offices were screened for the presence of RA based on ACR criteria (Aletaha et al., 2010). After informed consent was signed, each patient's medical history (according to chart review and interview/questionnaire), diet, and medications were determined. A screening musculoskeletal examination and laboratory assessments were also performed or reviewed. All RA patients who met the study criteria were offered enrollment. The criteria for inclusion in the study required that patients meet the American College of Rheumatology/European League Against Rheumatism 2010 classification criteria for RA (Aletaha et al., 2010), including seropositivity for rheumatoid factor and/or anti-citrullinated protein antibodies, and that all subjects be age 18 years or older. New-onset RA was defined as disease duration of a minimum of 6 weeks and up to 6 months since diagnosis, and absence of any treatment with disease-modifying anti-rheumatic drugs, biologic therapy or steroids (ever). The exclusion criteria applied to all groups were as follows: recent (<3 months prior) use of any antibiotic therapy, current extreme diet (e.g., parenteral nutrition or macrobiotic diet), known inflammatory bowel disease, known history of malignancy, current consumption of probiotics, any gastrointestinal tract surgery leaving permanent residua (e.g., gastrectomy, bariatric surgery, colectomy), or significant liver, renal, or peptic ulcer disease. This study was approved by the Institutional Review Board of New York University School of Medicine protocols #09-0658 and as previously published (Scher et al., 2013). All new onset rheumatoid arthritis (NORA) patients were recruited using established protocols from a previously described study (Scher et al., 2013). Patients received oral MTX at standard of care doses as prescribed by their treating rheumatologists. Stool samples were collected at baseline and 1 month after MTX initiation and metadata were obtained at baseline and 4 months after therapy initiation. Clinical and demographic data was de-identified and recorded in RedCap by the designated study personnel. Clinical responder status (MTX-R) was defined a priori as any NORA patient whose DAS28 score was greater than 2 at baseline and improved by at least 1.8 by month 4 post-treatment. DNA was extracted from human fecal samples (n=23 patients, 46 stool samples) as previously described (Scher et al., 2013), using the MoBio Powersoil DNA extraction kit, based on cell membrane disruption by high-speed shaking in the presence of beads. The V4 hypervariable region of bacterial 16S ribosomal RNA (rRNA) was performed using a MiSeq […] platform (150-bp read length, paired-end protocol) at the New York University Genome Technology Center as previously described (Manasson et al., 2018). For each sample, fastq files are available in NCBI's Sequence Read Archive (SRA), accession number PRJNA656577.
Stool samples from 17 RA patients underwent DNA extraction using ZymoBIOMICS 96 MagBead DNA Kit (Cat #D4302) as per the manufacturer's protocol. Sequencing libraries were generated using the Nextera DNA Flex Library Kit (Illumina, #20018705) and Nextera Compatible Unique Dual Indices—Set A primers (Illumina, #20027213). Library concentrations were normalized using PicoGreen (Quant-It dsDNA; Life Technologies) and pooled for sequencing on the NovaSeq using S1 or S2 platform at the Chan Zuckerberg Biohub.
Reads that were not already demultiplexed were demultiplexed using QIIME (Caporaso et al., 2010) v1.9.1 (split_libraries_fastq.py). For all reads except NYU RA patient samples, QIIME2 (Bolyen et al., 2019)(v 2020.2) was used to trim reads, denoise the data, and create a feature table using the following commands: qiime cutadapt trim-paired, qiime dada2 denoise-paired, qiime feature-table filter-samples. […]

## CN(Cc1cnc2nc(N)nc(N)c2n1)c1ccc(C(=O)N[C@@H](CCC(=O)O)C(=O)O)cc1 [MTX, methotrexate]
[1]; 22-220 μM or 10-100 μg/ml MTX, 5-15 of 45 isolates
  percentage of tested isolates inhibited at the estimated concentration in the proximal GI tract: 11-33%
[1]; 45 isolates, MTX 1.7-900 μg/ml, 2-2,000 μM, 48 hours, BHI+, anaerobic
  Minimal inhibitory concentration (MIC): ranged across the full gradient
[1]; 45 isolates, maximum 900 μg/ml, 48 hours
  number of isolates resistant to the maximum concentration tested: 11
[1]; MICs of isolates spanning 4 major phyla (FIG. 2B)
  sensitivity of Bacteroidetes relative to the other phyla: tended to be sensitive
[1]; MTX concentrations predicted to be found in the human gut, 36/45 isolates
  isolates with full growth inhibition or alterations in growth curve parameters: 80%
[1]; sub-MIC concentrations, subset of strains with growth curves
  percentage of tested isolates with at least one growth parameter affected in a dose-dependent manner: 78%
Gut microbiome; 23 RA patients, decrease in DAS28 of ≥1.8 and continued oral MTX without added DMARDs or biologics
  number of MTX responders (MTX-R): 8
Gut microbiome; 23 RA patients, same response definition
  number of MTX non-responders (MTX-NR): 15
Gut microbiome; MTX-NR, q<0.25, MaAsLin2
  number of KOs with significant differences in abundance: 5
  number of gene families with significant differences in abundance: 508
Gut microbiome; MTX-R, q<0.25, MaAsLin2
  number of gene families with significant shift: 2
Gut microbiome; baseline vs 1 month, Wilcoxon rank-sum
  change in Bacteroidetes over time in MTX-R relative to MTX-NR: significant decrease
Gut microbiome; entire cohort n=23, baseline vs 1 month, oral MTX standard of care
  richness, community structure, abundance of bacterial phyla, genera, or ASVs, pre- vs. post MTX: no significant differences
Gut microbiome; MaAsLin2 q-value<0.25
  number of gene families differentially abundant over time: 96
Gut microbiome; nominal p-value<0.05
  number of gene families differentially abundant over time: 6,409
Gut microbiome; nominal p<0.05
  number of KEGG orthologs (KOs) differentially abundant: 334
Gut microbiome; q<0.25
  number of KEGG orthologs (KOs) differentially abundant: 5
